# Measurements taken from patent publication US20240133884A1, “COMPOSITIONS AND METHODS FOR DETECTING TRYPANOSOMA CRUZI INFECTION” (University of Georgia Research Foundation, Inc., priority 2022, published 2024).
# pIC50: −log10 of the molar value.
# Experiments:
# CPSF3 = test: Resistance of CPSF3 overexpression line and CPSF3 mutant (intracellular amastigotes); format: cell-based, Trypanosoma cruzi
# Procedure: (§1) The in vitro anti-T. cruzi amastiogote activity assay was performed and optimized based on the protocol described previously (Canavaci, et al., PLoS neglected tropical diseases 4, e740 (2010)). The change in tdTomato fluorescence intensity was determined as a measurement of growth over 72 hours of culture. For assaying drug effects on extracellular amastigotes, trypomastigotes were collected from infected Vero cell cultures and converted in acidic media as previously described (Tomlinson, et al., Parasitology 110 (Pt 5), 547-554 (1995)). Amastigotes (50,000/well) were incubated with 2-fold serial dilutions of compounds for 48 hours. The ATP production was used as an indication of growth in this case, and was measured by ATPlite Luminescence ATP Detection Assay System (PerkinElmer). Both fluorescence and luminescence were read using a BioTek Synergy Hybrid Multi-Mode reader equipped with the software Gene5 v 2.0 (BioTek). The dose-response curve was generated by […] analysis with GraphPad Prism v9.4.0 (GraphPad Software). IC50 was determined as the drug concentration that was required to inhibit 50% of growth compared to that of parasites with no drug exposure. […]
# T. cruzi isolates = test: In vitro potency of AN14353 for a range of T. cruzi isolates of different genetic lineages (DTUs); format: cell-based, Trypanosoma cruzi
# Procedure: as §1
structure (smiles),measurement,setting,value
Cc1c(C(=O)N[C@H](C(=O)OCC2CCOCC2)C(C)C)ccc2c1B(O)OC2 [AN15368],increase in resistance on overexpression of CPSF3,CPSF3; intracellular amastigotes,3-5 fold
same,effect of CPSF3 Asn232 to His mutation,CPSF3; intracellular amastigotes (FIG. 5D),conferred resistance
Cc1c(C(=O)N[C@H](C(=O)OCc2ccc(F)c(F)c2)C(C)C)ccc2c1B(O)OC2 [AN14353],in vitro potency for a range of T. cruzi isolates,T. cruzi isolates; in words,high in vitro potency
same,pIC50,"T. cruzi isolates; strain 20290, DTU TcI",8.52
same,IC90,"T. cruzi isolates; strain 20290, DTU TcI",5 nM
same,pIC50,"T. cruzi isolates; strain 20392, DTU TcIV",8.30
same,IC90,"T. cruzi isolates; strain 20392, DTU TcIV",10 nM
same,pIC50,"T. cruzi isolates; strain ARC0704, DTU TcI",8.52
same,IC90,"T. cruzi isolates; strain ARC0704, DTU TcI",7 nM
same,pIC50,"T. cruzi isolates; strain CL, DTU TcVI",8.22
same,IC90,"T. cruzi isolates; strain CL, DTU TcVI",18 nM
same,pIC50,"T. cruzi isolates; strain Colombiana, DTU TcI",8.15
same,IC90,"T. cruzi isolates; strain Colombiana, DTU TcI",10 nM
same,pIC50,"T. cruzi isolates; strain M5631, DTU TcIII",9.00
same,IC90,"T. cruzi isolates; strain M5631, DTU TcIII",3 nM
same,pIC50,"T. cruzi isolates; strain Montalvania, DTU TcI",9.00
same,IC90,"T. cruzi isolates; strain Montalvania, DTU TcI",2 nM
same,pIC50,"T. cruzi isolates; strain Tul8, DTU TcII",9.00
same,IC90,"T. cruzi isolates; strain Tul8, DTU TcII",2 nM
